pIC50: −log10 of the molar value. ≈ marks a conversion by molar mass, not a printed value. Calls of active or inactive are those of the source. The rule behind the calls is not given here.
What was measured:
Chikungunya virus [1] = experiment: Antiviral activity against CHIKV 181/25 expressing nLuc-capsid gene infected in human MRC5 cells assessed as inhibition of viral replication at 40 uM preincubated with cells for 1 hr followed by viral infection measured after 6 hrs post-infection by Nano-glo luciferase assay relative to control; format: functional; settings: for inhibition at 40 µM: 181/25, MRC5, time 7 hrs; for inhibition: time 7.0 hrs
Chikungunya virus [2] = experiment: Antiviral activity against CHIKV 181/25 expressing nLuc-capsid gene infected in human MRC5 cells assessed as reduction in viral replication preincubated with cells for 1 hr followed by viral infection measured after 6 hrs post-infection by Nano-glo luciferase assay; format: functional, organism-based; settings: 181/25, MRC5, read-out: pEC50 (converted)
MRC5 = experiment: Cytotoxicity against human MRC5 cells at 10 to 40 uM by Cell Titer Glo assay; format: toxicity, cell-based; settings: mrc5, 40 µM, dose 10-40 µM
Chikungunya virus [3] = experiment: Inhibition of N-terminal 6-His/SUMO-tagged CHIKV 181/25 nsP2 extracted from Escherichia coli Rosetta 2 at 200 uM preincubated for 30 mins followed by ATP addition measured after 1 hr by ADP-Glo assay relative to control; settings: time 90.0 min
Polyprotein P1234 [4] = target: T1, Polyprotein P1234 (Chikungunya virus (strain S27-African prototype) (CHIKV), UniProt Q8JUX6); experiment: Inhibition of N-terminal 6-His/SUMO-tagged CHIKV 181/25 nsP2 extracted from Escherichia coli Rosetta 2 preincubated for 30 mins followed by ATP addition measured after 1 hr by ADP-Glo assay
T1 sequence (Q8JUX6 536-1333 limits assumed): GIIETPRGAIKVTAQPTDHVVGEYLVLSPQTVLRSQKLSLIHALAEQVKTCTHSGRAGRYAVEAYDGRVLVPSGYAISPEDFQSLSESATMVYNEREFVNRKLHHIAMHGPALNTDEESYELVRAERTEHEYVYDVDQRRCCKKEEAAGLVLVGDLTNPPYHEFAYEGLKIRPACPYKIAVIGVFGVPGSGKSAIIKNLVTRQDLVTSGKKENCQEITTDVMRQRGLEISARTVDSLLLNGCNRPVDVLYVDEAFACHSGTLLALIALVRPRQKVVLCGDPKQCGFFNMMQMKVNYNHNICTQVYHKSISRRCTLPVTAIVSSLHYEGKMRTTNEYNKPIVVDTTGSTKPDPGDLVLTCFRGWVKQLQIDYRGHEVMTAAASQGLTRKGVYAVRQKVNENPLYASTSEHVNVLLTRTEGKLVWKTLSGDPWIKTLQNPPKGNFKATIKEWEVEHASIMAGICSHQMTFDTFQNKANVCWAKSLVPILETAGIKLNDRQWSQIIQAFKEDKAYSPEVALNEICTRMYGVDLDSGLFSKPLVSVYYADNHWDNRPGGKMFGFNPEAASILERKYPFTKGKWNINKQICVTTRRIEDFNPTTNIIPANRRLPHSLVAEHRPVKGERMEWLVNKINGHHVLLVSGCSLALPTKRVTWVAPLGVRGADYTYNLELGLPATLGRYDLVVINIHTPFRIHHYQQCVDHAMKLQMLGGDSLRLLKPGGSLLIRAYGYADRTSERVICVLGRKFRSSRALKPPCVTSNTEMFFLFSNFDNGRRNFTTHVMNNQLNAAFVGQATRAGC

[5] = Aqueous solubility of compound in PBS at pH 7.4; format: physicochemical
[6] = Selectivity ratio of pEC50 for antiviral activity against VEEV expressing nLuc to pEC50 for antiviral activity against CHIKV 181/25 expressing nLuc-capsid gene infected in human MRC5 cells; format: functional
[7] = Aqueous solubility of compound; format: physicochemical; settings: buffer
Polyprotein P1234 [8] = target: T1, Polyprotein P1234; experiment: (§1) Inhibition of N-terminal 6-His/SUMO-tagged CHIKV 181/25 nsP2 extracted from Escherichia coli Rosetta 2 assessed as decrease in nsP2 helicase activity in presence of RNA duplex composed of 39mer loading RNA strand/19mer displaced RNA strand by gel electrophoresis
[9] = target: Polyprotein P1234 (Chikungunya virus (strain S27-African prototype) (CHIKV)) (UniProt Q8JUX6); experiment: as §1; settings: dose 0.01-100 µM
Target sequence in this assay (Q8JUX6 536-1333 limits assumed): as above

[10] = target: Polyprotein P1234 (Chikungunya virus (strain S27-African prototype) (CHIKV)) (UniProt Q8JUX6); experiment: Binding affinity to N-terminal 6-His/SUMO-tagged CHIKV 181/25 nsP2 extracted from Escherichia coli Rosetta 2 assessed as unchanged Km up to 2.5 uM in presence of [alpha-32P]-ATP by TLC method
Target sequence in this assay (Q8JUX6 whole entry): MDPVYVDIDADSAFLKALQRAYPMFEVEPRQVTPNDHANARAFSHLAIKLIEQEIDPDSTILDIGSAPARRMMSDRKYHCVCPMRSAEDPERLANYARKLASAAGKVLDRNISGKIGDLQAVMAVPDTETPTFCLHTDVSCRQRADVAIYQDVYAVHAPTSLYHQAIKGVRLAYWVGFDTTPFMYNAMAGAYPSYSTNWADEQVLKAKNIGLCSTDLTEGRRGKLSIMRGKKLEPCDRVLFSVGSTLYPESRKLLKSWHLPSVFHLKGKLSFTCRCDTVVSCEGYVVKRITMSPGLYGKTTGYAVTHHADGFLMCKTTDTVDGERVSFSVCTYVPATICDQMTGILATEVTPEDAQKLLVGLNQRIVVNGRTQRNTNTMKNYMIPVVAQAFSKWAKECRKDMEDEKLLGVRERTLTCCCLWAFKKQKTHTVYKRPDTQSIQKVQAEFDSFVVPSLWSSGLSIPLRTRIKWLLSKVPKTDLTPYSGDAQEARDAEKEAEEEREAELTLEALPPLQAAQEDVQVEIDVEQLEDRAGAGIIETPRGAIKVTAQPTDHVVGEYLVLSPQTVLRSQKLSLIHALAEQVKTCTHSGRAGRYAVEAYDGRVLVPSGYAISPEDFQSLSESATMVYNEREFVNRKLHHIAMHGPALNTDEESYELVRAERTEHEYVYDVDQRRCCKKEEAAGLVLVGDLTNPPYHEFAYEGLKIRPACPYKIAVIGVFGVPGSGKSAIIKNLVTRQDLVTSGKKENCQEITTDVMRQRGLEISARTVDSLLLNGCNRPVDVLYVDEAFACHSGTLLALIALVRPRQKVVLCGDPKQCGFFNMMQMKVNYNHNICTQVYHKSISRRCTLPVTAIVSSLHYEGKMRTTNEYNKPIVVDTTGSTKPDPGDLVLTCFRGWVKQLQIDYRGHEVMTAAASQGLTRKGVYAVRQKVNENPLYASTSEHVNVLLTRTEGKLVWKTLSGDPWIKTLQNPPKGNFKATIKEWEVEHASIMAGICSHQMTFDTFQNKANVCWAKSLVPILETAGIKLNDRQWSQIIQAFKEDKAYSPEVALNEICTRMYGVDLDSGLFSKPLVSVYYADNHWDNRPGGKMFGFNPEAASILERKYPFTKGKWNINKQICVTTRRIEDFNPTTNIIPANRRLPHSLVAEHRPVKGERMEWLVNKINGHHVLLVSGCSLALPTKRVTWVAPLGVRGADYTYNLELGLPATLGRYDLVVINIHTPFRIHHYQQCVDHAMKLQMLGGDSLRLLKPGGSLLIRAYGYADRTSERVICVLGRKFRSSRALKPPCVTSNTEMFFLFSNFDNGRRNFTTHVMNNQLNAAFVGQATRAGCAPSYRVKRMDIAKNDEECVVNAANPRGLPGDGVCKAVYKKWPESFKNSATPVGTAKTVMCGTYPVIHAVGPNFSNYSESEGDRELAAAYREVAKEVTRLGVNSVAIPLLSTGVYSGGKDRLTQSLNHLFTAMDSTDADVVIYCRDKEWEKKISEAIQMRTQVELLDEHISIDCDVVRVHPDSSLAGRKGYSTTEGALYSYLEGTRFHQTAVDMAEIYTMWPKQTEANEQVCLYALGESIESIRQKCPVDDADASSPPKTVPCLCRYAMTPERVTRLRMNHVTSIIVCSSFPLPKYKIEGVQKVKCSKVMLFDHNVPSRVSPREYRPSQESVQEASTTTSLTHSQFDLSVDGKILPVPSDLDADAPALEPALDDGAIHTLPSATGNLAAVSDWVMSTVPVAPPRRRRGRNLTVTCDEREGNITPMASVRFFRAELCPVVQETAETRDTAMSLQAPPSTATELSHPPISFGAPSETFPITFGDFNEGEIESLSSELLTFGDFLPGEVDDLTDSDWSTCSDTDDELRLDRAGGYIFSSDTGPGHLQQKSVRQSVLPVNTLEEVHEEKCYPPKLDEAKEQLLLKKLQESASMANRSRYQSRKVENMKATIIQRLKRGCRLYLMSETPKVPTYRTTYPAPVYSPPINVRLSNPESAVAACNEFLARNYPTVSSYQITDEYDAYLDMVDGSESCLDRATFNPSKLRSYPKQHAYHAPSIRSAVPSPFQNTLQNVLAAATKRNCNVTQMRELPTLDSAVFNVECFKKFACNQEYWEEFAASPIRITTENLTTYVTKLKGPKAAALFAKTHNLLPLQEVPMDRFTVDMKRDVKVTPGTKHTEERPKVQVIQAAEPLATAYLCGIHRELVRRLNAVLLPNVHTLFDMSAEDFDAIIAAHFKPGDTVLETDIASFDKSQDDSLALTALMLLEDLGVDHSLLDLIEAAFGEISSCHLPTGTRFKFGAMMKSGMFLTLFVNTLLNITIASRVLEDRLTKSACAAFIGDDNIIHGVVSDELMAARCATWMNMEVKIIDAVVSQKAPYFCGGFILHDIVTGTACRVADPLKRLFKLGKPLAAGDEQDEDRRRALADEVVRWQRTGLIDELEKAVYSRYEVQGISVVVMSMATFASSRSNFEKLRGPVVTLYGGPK

Chikungunya virus [11] = experiment: (§2) Anti-viral activity against CHIKV infected in human NHDF cells assessed as reduction in viral titer incubated with cells for 1 hr followed by viral infection for 2 hrs and subsequent replacement of fresh media with compound measured after 24 hrs post-infection by extracting viral supernatant from cells and transferring supernatant to African geen monkey Vero cells for measuring plaque formation; format: functional, organism-based; settings: dose 0.01-100 µM, time 25.0 hrs
[12] = target: Polyprotein P1234 (Chikungunya virus (strain S27-African prototype) (CHIKV)) (UniProt Q8JUX6); experiment: Inhibition of N-terminal 6-His/SUMO-tagged CHIKV 181/25 nsP2 extracted from Escherichia coli Rosetta 2 assessed as decrease in nsP2 ATPase activity up to 100 uM measured for 5 to 10 mins in presence of [alpha-32P]-ATP by TLC method; settings: time 5-10 min
Target sequence in this assay (Q8JUX6 whole entry): as above

[13] = target: Polyprotein P1234 (Chikungunya virus (strain S27-African prototype) (CHIKV)) (UniProt Q8JUX6); experiment: Binding affinity to N-terminal 6-His/SUMO-tagged CHIKV 181/25 nsP2 extracted from Escherichia coli Rosetta 2 assessed as decrease in Vmax up to 2.5 uM in presence of [alpha-32P]-ATP by TLC method
Target sequence in this assay (Q8JUX6 whole entry): as above

Mayaro virus [14] = experiment: as §2, with “MAYV” for “CHIKV”; format: functional, organism-based; settings: dose 0.01-100 µM, time 25.0 hrs
Mayaro virus [15] = experiment: as §2, with “activity against MAYV infected in” for “activity against CHIKV infected in”, “assessed as log reduction in” for “assessed as reduction in”, “viral titer at 0.01 to 100 uM incubated with” for “viral titer incubated with”; format: functional; settings: dose 0.01-100 µM; time 25 hrs
[16] = target: Polyprotein P1234 (Chikungunya virus (strain S27-African prototype) (CHIKV)) (UniProt Q8JUX6); experiment: Binding affinity to N-terminal 6-His/SUMO-tagged CHIKV 181/25 nsP2 extracted from Escherichia coli Rosetta 2 using fluorescein-labeled dsRNA template incubated for 30 mins by fluorescence polarization assay
Target sequence in this assay (Q8JUX6 whole entry): as above

SMILES | inhibition at 40 µM (Chikungunya virus [1]) | EC50 (Chikungunya virus [2]) | Activity (MRC5) | inhibition (Chikungunya virus [3]) | pIC50 (Polyprotein P1234 [4]) | inhibition (Chikungunya virus [1]) | solubility kinetic [5] | other results
CC1(C(=O)N2CCC3(CC2)CC(CNS(C)(=O)=O)CCO3)CCCC1 (stereo not drawn) | 40% | > 39.8 µM | Non-toxic | inactive |  |  |  | 
CN(C)S(=O)(=O)NCC1CCOC2(CCN(C(=O)C3(c4ccccn4)CCCC3)CC2)C1 (stereo not drawn) | 70% | > 39.8 µM | Non-toxic | 40% | < 4.40 |  |  | 
CS(=O)(=O)NCC1CCOC2(CCN(C(=O)C3(c4ccccc4)CCC3)CC2)C1 (stereo not drawn) |  |  | Non-toxic | inactive |  | inactive | 160 µM (≈ 67.3 µg/mL) | 
CN(C)S(=O)(=O)NCC1CCOC2(CCN(C(=O)C3(c4cccnc4)CCCC3)CC2)C1 (stereo not drawn) | 50% | > 39.8 µM | Non-toxic | inactive |  |  |  | 
CS(=O)(=O)NCC1CCOC2(CCN(C(=O)C3(c4ccc(Cl)cc4)CCCC3)CC2)C1 (stereo not drawn) | 70% | > 39.8 µM | Non-toxic | inactive |  |  |  | 
CS(=O)(=O)NCC1CCOC2(CCN(C(=O)Cc3ccccc3)CC2)C1 (stereo not drawn) |  |  | Non-toxic | inactive |  | inactive | 200 µM (≈ 76.1 µg/mL) | 
CNCC1CCOC2(CCN(C(=O)C3(c4ccccc4)CCCC3)CC2)C1 (stereo not drawn) | 60% | > 39.8 µM | Non-toxic | inactive |  |  | 170 µM (≈ 63 µg/mL) | 
Cc1ccc(C2(C(=O)N3CCC4(CC3)CC(CNS(C)(=O)=O)CCO4)CCCC2)cc1 (stereo not drawn) |  |  | Non-toxic | inactive |  | inactive |  | 
NCC1(O)CCOC2(CCN(C(=O)C3(c4ccccc4)CCCC3)CC2)C1 (stereo not drawn) | 50% | > 39.8 µM | Non-toxic | inactive |  |  | 170 µM (≈ 63.3 µg/mL) | 
CS(=O)(=O)NCC1CCOC2(CCN(C(=O)C3(c4ccccc4)CCOCC3)CC2)C1 (stereo not drawn) |  |  | Non-toxic | inactive |  | inactive | 190 µM (≈ 85.6 µg/mL) | 
CS(=O)(=O)NCC1CCOC2(CCN(C(=O)C3(c4ccccc4)CCCC3)CC2)C1 (stereo not drawn) |  | 3.16 µM | Non-toxic | 40% | < 4.40 |  |  | Ratio [6]: 10; solubility [7]: 240 µM (≈ 104 µg/mL)
CC(C)(C(=O)N1CCC2(CC1)CC(CNS(C)(=O)=O)CCO2)c1ccccc1 (stereo not drawn) | 50% | > 39.8 µM | Non-toxic | 40% | < 4.40 |  | 220 µM (≈ 89.9 µg/mL) | 
CN(C)S(=O)(=O)NCC1CCOC2(CCN(C(=O)C3(c4ccncc4)CCCC3)CC2)C1 (stereo not drawn) |  |  | Non-toxic | inactive |  | inactive |  | 
O=C(N1CCC2(CC1)CC(CN1CCCCS1(=O)=O)CCO2)C1(c2ccccc2)CCCC1 (stereo not drawn) |  | 0.126 µM | Non-toxic |  | 6.30 |  | > 220 µM | pIC50 (Polyprotein P1234 [8]): 6.05; inhibition [9]: Dose-dependent-effect; Activity [10]: Active; Activity (Chikungunya virus [11]): Dose-dependent-effect; inhibition [12]: Active; Ic50 Of Compound Was Same At Both # And # Mins; Activity [13]: Active; Activity (Mayaro virus [14]): Dose-dependent-effect; Activity (Mayaro virus [15]): 0.01 10^5No_unit; Activity [16]: Active; Compound Did Not Involve Direct Displacement Of Rna Substrate Suggesting Allosteric Mechanism Of Helicase Inhibition
CN(C)S(=O)(=O)NCC1CCOC2(CCN(C(=O)C3(c4ccccc4)CCCO3)CC2)C1 (stereo not drawn) |  |  | Non-toxic | inactive |  | inactive | 200 µM (≈ 93.1 µg/mL) | 
O=C(N1CCC2(CC1)CC(CN1CCCCS1(=O)=O)CCO2)C1(c2ccc(F)cc2)CCCC1 (stereo not drawn) | 90% | > 39.8 µM | Non-toxic | 80% | < 4.40 |  | 190 µM (≈ 93.6 µg/mL) | 
NCC1CCOC2(CCN(C(=O)C3(c4ccccc4)CCCC3)CC2)C1 (stereo not drawn) | 60% | > 39.8 µM | Non-toxic | inactive |  |  | 160 µM (≈ 57 µg/mL) | 
CCCCCCOc1ccc(C(=O)NCC2CCOC3(CCN(C(=O)C4(c5ccccc5)CCCC4)CC3)C2)cc1 (stereo not drawn) | 70% | > 39.8 µM | Non-toxic | inactive |  |  | < 1 µM | 
COc1ccc(C2(C(=O)N3CCC4(CC3)CC(CNS(C)(=O)=O)CCO4)CCCC2)cc1 (stereo not drawn) |  |  | Non-toxic | inactive |  | inactive |  | 
Cc1ccnc(OC2CCOC3(CCN(C(=O)C4(c5ccccc5)CCCC4)CC3)C2)c1 (stereo not drawn) |  | 12.6 µM | Non-toxic | 40% | < 4.40 |  |  | Ratio [6]: 10; solubility [7]: 14 µM (≈ 6.08 µg/mL)
O=C1CCCN1CC1CCOC2(CCN(C(=O)C3(c4ccccc4)CCCC3)CC2)C1 (stereo not drawn) |  | 2.51 µM | Non-toxic | 90% | < 4.40 |  | 200 µM (≈ 84.9 µg/mL) | 
CN(C)S(=O)(=O)NCC1CCOC2(CCN(C(=O)C(=O)c3ccccc3)CC2)C1 (stereo not drawn) |  |  | Non-toxic | inactive |  | inactive | 170 µM (≈ 72 µg/mL) | 

Reference: ChEMBL document CHEMBL6178023 (J Med Chem, 2025)
